Laboratory results as given in US10519339B2, “Method for applying a coating to a polymeric substrate” (Sophion Bioscience A/S, priority 2012, dated 2019).

Assay: Adsorption of drugs: recovery from supernatant by ESI-MS after incubation on glass, coated or uncoated polystyrene
Format: physicochemical
Details: 100 nM drug, FIG. 4, samples stored in glass vials up to 3 days
Experimental: Different concentrations of the drugs were dissolved in 2 ml H2O from a stock solution of 0.5 mM in 50% acetonitrile/50% H2O, and added to coated or uncoated polystyrene containers (2 mL solution added to each circular container of diameter 33 mm) as well as glass containers acting as reference material. Drug concentrations up to 250 nM were investigated. At different time points 250 μL of supernatant was sampled for analysis. […] The samples were analyzed by ESI-MS using 50% H2O/50% MeOH/0.1% acetic acid running buffer (0.1 mL/min).
The effectiveness of the low-binding Bz+NHS-PEG coatings were probed by extended incubation of coated and uncoated polystyrene in 100 nM solutions of drugs spanning a wide range of hydrophobicity. Glass surfaces were included as reference to the polystyrene. The supernanants of the incubation solutions were sampled at different time points, and the drug concentrations determined by electrospray ionization mass spectrometry (ESI-MS) after addition of an internal standard.
The recovery was calculated as the ratio of the drug concentration in the supernatant to the initially added drug concentration.

**Q.** Which “adsorption on glass surface” value does the source give for `CCCCc1oc2ccccc2c1C(=O)c1cc(I)c(OCCN(CC)CC)c(I)c1` [amiodarone] here?
**A.** large adsorption even on the glass surface
